Patent US7214669B2, “Tetracycline derivatives and methods of use thereof” (Tetragenex Pharmaceuticals, Inc., priority 2001, dated 2007)
Where “and” joins values, the source holds several entries; their conditions need not be identical. Equal values may be shown once. Where a name gives a salt, the structure may show the parent alone.

Assays:
MAT LyLu tumor = assay: Dunning MAT LyLu tumor model, survival; assay type: in vivo, Copenhagen rats; conditions: for Surviving Number: 10/group, dosed by gavage; for surviving number after tumor implantation (in words): compared to the control group
Experimental: (§2) Fresh dosing solutions containing 10 mg/ml of each test article in 2% carboxymethylcellulose were prepared daily and used in the testing.
(§3) Three groups of animals (10/group) were dosed by gavage with either vehicle, or one of the two analogs daily for three weeks, and then three times per week until death or sacrifice. Dosing was begun seven days prior to implantation of the MAT LyLu tumor cells by tail vein injection. Approximately 0.1 ml of tumor cell suspension was injected into one of the lateral tail veins. The dose to be chosen was based on two factors: (1) efficacy and (2) morbidity associated with the analog, if any.

[1] = Dunning MAT LyLu tumor model, weekly body weight; assay type: in vivo; conditions: compared to the control group
Experimental: as §2, §3

Human recombinant MMP1 = target: T1, Human recombinant MMP1 (Homo sapiens, UniProt P03956); assay: MMP1 (Collagenase-1) inhibition, 14C collagen release; assay type: biochemical; conditions: 35° C., 5 hours; read-out: MMP-1 inhibitory activity, IC50
T1 sequence (P03956 100-469): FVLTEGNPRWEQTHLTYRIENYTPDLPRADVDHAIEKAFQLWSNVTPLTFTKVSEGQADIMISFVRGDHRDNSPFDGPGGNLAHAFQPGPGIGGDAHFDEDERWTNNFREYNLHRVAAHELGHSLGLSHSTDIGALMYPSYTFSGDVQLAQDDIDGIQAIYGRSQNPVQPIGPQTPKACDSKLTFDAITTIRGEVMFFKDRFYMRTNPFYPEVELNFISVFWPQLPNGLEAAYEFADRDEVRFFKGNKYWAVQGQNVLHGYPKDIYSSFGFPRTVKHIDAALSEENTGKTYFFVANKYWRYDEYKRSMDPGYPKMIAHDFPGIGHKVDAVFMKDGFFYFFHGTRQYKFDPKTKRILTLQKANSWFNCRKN
Experimental: Protocol for Measuring MMP1 (Collagenase-1) Inhibition by Tetracycline Derivatives
MMP1 activity was determined by the release of soluble ^14C labelled collagen fragments from ^14C acetylated rat skin type I collagen (Methods in Enzymology 80 711, 1981).
• 100 μg ^14C labelled rat skin type I collagen (5–6000 dpm) • 50 mM Tris HCl pH 7.9 • 15 mM CaCl2 0.02% azide • Human recombinant MMP1 3–4 nM • ±Tetracycline (up to 1 mM) in a total volume of 300 μl.
Incubations were at 35° C. for 5 hours. Uncleaved collagen fibrils (which form within the first 10 minutes) were removed by centrifugation at 10,000 g, 4° C., 10 minutes. 200 μl supernatant were counted in Packard Opti Phase Supermix scintillation fluid using a scintillation counter. Only data derived from within the linear part of the assay (10–70% lysis of the collagen) were utilized. Based on percentage inhibition of the activity of MMP1 alone by a range of concentrations of each sample, the IC50 value for each tetracycline was calculated by linear regression analysis.

MMP2 (Gelatinase A) = target: T2, MMP2 (Gelatinase A) (Homo sapiens, UniProt P08253); assay: MMP2 (Gelatinase A) inhibition, 14C gelatin release; assay type: biochemical; conditions: 37° C., 16 hours; read-out: MMP-2 inhibitory activity, IC50
T2 sequence (P08253 110-660): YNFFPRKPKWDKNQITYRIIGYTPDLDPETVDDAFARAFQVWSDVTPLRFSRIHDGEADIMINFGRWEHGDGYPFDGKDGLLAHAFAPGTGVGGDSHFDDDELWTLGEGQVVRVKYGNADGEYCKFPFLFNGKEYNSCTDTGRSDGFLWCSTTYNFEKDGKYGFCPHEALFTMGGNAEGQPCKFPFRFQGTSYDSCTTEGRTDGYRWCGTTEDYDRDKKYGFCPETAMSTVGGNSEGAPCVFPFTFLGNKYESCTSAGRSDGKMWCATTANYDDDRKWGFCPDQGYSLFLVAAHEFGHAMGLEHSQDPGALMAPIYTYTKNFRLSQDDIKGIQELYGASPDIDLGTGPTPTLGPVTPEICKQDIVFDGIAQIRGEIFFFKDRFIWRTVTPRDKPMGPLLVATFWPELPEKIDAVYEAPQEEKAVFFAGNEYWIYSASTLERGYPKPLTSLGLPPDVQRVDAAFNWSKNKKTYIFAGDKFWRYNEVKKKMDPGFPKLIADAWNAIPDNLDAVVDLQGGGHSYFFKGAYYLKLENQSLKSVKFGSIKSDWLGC
Experimental: Protocol for Measuring MMP2 (Gelatinase A) Inhibition
MMP2 activity was determined by the release of trichloracetic acid, TCA, soluble fragments from ^14C acetylated rat skin type I gelatin (Methods in Enzymology 248, 470, 1995. Biochem. J. 195, 1981)
• 100 μg ^14C labelled gelatin (type I collagen denatured 60° C. 20 min) • 50 mM Tris HCl pH 7.9 • 15 mM CaCl2, 0.02% azide • Human recombinant MMP1, 0.1–0.5 nM • ±Tetracycline (up to 1 MM) in a total volume of 250 μl.
Incubations were set at 37° C. for 16 hours. The reaction was stopped by cooling the incubations and addition of 50 μl cold 90% (w/v) trichloracetic acid with careful mixing. TCA precipitation was allowed to proceed for 15 minutes at 4° C. prior to cetrifugation at 10,000 g for 10 minutes at 4° C. 200 μl of the TCA supernatant was taken for the determination of radioactive content by scintillation counting (Packard Opti Phase Supermix scintillation fluid). Only data derived from within the linear part of the assay (10–70% lysis) were utilized. The percentage inhibition of MMP2 by each tetracycline concentration was plotted to derive the IC50 value, using linear regression analysis.

Human recombinant MMP3 = Human recombinant MMP3 (Homo sapiens, UniProt P08254); assay: MMP3 (Stromelysin 1) inhibition, 14C casein release; assay type: biochemical; conditions: 37° C., 16 hours; read-out: MMP-3 inhibitory activity, IC50
Human recombinant MMP3, sequence (P08254 100-477): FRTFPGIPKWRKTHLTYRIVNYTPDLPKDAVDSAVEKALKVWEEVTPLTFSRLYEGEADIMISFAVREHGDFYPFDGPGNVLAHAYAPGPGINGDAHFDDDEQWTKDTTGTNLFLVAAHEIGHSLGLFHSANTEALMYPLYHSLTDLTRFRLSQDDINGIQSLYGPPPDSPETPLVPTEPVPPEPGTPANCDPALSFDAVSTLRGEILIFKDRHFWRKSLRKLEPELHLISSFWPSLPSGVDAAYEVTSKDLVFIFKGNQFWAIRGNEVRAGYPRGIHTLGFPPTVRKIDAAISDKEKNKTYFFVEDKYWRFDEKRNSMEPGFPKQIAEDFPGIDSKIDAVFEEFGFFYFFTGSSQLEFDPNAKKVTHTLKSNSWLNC
Experimental: Protocol for Measuring MMP3 (Stromelysin 1) Inhibition
• 100 μg ^14C casein (7000 dpm) • 50 mM Tris HCl, pH 7.9 • 15 mM CaCl2, 0.02% azide • Human recombinant MMP3, 0.25–1.0 nM • ±tetracycline (up to 1 mM) in a total volume of 250 μl.
Incubations were at 37° C. for 16 hours. The reaction was stopped by the addition of 500 μl cold 18% TCA and standing on ice for 15 minutes. TCA precipitates were removed by centrifugation at 10,000 g for 10 minutes at 4° C. and 200 μl supernatant was taken for scintillation counting. Only data derived from within the linear part of the assay (10–60% lysis) were utilized. The percentage inhibition of MMP3 by each concentration of the candidate tetracycline was plotted to derive the IC50 value, using linear regression analysis.

Human recombinant MMP7 = target: T3, Human recombinant MMP7 (Homo sapiens, UniProt P09237); assay: MMP7 (Matrilysin) inhibition, 14C casein release; assay type: biochemical; conditions: 37° C., 16 hours; read-out: MMP-7 inhibitory activity, IC50
T3 sequence (P09237 95-267): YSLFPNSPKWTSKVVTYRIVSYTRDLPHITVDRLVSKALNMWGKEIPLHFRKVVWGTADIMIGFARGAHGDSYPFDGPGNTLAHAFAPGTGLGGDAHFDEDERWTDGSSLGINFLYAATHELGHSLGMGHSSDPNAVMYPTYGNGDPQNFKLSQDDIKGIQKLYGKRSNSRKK
Experimental: MMP7 activity was determined by the release of trichloracetic acid, TCA, soluble fragments from ^14C acetylated β casein (Sigma) as described in Methods in Enzymology 248, 451 (1995).
• 100 μg ^14C casein (7000 dpm) • 50 mM Tris HCl, pH 7.9 • 15 mM CaCl2, 0.02% azide • Human recombinant MMP7, 1.5 nM • ±tetracycline (up to 1 mM) in a total volume of 250 μl.
Incubations were at 37° C. for 16 hours. The incubation was stopped by the addition of 500 μl cold 18% TCA and standing on ice for 15 minutes. TCA precipitates were removed by centrifugation at 10,000 g for 10 minutes at 4° C., and 200 μl supernatant was taken for scintillation counting. Only data derived from within the linear part of the assay (10–60% lysis) were utilized. The percentage inhibition of MMP7 by each concentration of the candidate tetracycline were plotted to derive the IC50 value.

Human recombinant MMP9 = Human recombinant MMP9 (Homo sapiens, UniProt P14780); assay: MMP9 (Gelatinase B) inhibition, 14C gelatin release; assay type: biochemical; conditions: 37° C., 16 hours; read-out: MMP-9 inhibitory activity, IC50
Human recombinant MMP9, sequence (P14780 94-707): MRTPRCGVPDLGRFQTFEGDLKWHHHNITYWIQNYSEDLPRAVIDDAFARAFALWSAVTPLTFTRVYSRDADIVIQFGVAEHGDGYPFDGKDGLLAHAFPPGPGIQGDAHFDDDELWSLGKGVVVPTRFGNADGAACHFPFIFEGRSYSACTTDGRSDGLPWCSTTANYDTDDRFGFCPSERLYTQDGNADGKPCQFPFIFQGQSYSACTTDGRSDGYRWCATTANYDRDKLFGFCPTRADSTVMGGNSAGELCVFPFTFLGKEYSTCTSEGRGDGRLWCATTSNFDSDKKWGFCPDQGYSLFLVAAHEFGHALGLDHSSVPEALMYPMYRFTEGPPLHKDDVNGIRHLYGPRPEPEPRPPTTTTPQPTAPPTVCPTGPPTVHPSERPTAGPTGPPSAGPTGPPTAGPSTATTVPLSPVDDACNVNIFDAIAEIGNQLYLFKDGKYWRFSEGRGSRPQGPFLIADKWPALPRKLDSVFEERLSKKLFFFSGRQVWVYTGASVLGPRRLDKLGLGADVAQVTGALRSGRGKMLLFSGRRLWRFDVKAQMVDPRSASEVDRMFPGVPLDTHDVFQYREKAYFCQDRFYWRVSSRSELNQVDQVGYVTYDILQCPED
Experimental: Protocol for Measuring MMP9 (Gelatinase B) Inhibition
MMP9 activity was determined by the release of trichloracetic acid, TCA soluble fragments from ^14C acetylated rat skin type I (Methods in Enzymology 248, 470, 1995. Biochem. J. 195, 1981)
• 100 μg ^14C labelled gelatin (collagen denatured 60° C. 20 min) • 50 mM Tris HCl pH 7.9 • 15 mM CaCl2, 0.02% azide • Human recombinant MMP9, 1.2–2 nM • ±Tetracycline (up to 1 mM) in a total volume of 250 μl.
Incubations were at 37° C. for 16 hours. The incubations were stopped by cooling the incubations and addition of 50 μl cold 90% (w/v) trichloracetic acid with careful mixing. TCA precipitation was allowed to proceed for 15 minutes at 4° C. prior to centrifugation at 10,000 g for 10 minutes at 4° C. 200 μl of the TCA supernatant was taken for the determination of radioactive content by scintillation counting (Packard Opti Phase Supermix scintillation fluid). Only data derived from within the linear part of the assay (10–70% lysis) were utilized. The percentage inhibition of MMP9 by each tetracycline concentration were plotted to derive the IC50 value.

Human recombinant MMP14 = Human recombinant MMP14 (Homo sapiens, UniProt P50281); assay: MMP14 (MTI-MMP) inhibition, 14C collagen release; assay type: biochemical; conditions: 35° C., 15 hours; read-out: MMP-14 inhibitory activity, IC50
[2] = system: Ark human myeloma cancer cells; assay: Membrane Invasion Culture System (MICS) chemo-invasion assay; assay type: cell-based; conditions: 24 hours, + = increased invasiveness
How it was run: (§1)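 Fifty thousand cells were seeded above a 35 μm laminin/collagen IV/gelatin barrier on a 10 μm-pore filter, with serum-free RPMI plus 50% fibroblast-conditioned medium below as chemoattractant. Compound at 1, 10 or 25 μg/ml, or DMSO vehicle, was present for 24 h. Invaded cells were collected, Wright-stained and counted over 5 fields.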

[3] = system: Arp-1 human myeloma cancer cells; assay: as above; assay type: cell-based; conditions: 24 hours, + = increased invasiveness
How it was run: as §1

[4] = system: C8161 human melanoma cells; assay: as above; assay type: cell-based; conditions: 24 hours, + = increased invasiveness
How it was run: as §1

[5] = system: MDA-MB-231 human breast cancer cells; assay: as above; assay type: cell-based; conditions: 24 hours, + = increased invasiveness
How it was run: as §1

[6] = system: PC-3 ML human prostate cancer cells; assay: as above; assay type: cell-based; conditions: 24 hours, + = increased invasiveness
How it was run: as §1

[7] = system: RPMI-8226 human myeloma cancer cells; assay: as above; assay type: cell-based; conditions: 24 hours, + = increased invasiveness
How it was run: as §1

[8] = 14 days post tumor implantation
[9] = 17 days post tumor implantation
[10] = 24 days post tumor implantation
[11] = 27 days post tumor implantation
[12] = 28 days post tumor implantation
[13] = 29 days post tumor implantation
[14] = 30 days post tumor implantation
[15] = 34 days post tumor implantation
[16] = 42 days post tumor implantation

SMILES	Surviving Number (MAT LyLu tumor; [8])	Surviving Number (MAT LyLu tumor; [9])	Surviving Number (MAT LyLu tumor; [10])	Surviving Number (MAT LyLu tumor; [11])	Surviving Number (MAT LyLu tumor; [12])	Surviving Number (MAT LyLu tumor; [13])	Surviving Number (MAT LyLu tumor; [14])	Surviving Number (MAT LyLu tumor; [15])	Surviving Number (MAT LyLu tumor; [16])	surviving number after tumor implantation (in words) (MAT LyLu tumor)	body weight changes [1]	IC50 (Human recombinant MMP1) [µM]	IC50 (MMP2 (Gelatinase A)) [µM]	IC50 (Human recombinant MMP3) [µM]	IC50 (Human recombinant MMP7) [µM]	IC50 (Human recombinant MMP9) [µM]	percent inhibition, ARK ([2]; 1 ug/mL)	percent inhibition, ARP-1 ([3]; 1 ug/mL)	percent inhibition, ARP-1 ([3]; 10 ug/mL)	percent inhibition, ARP-1 ([3]; 25 ug/mL) [%]	other results
CC1c2ccc([N+](=O)[O-])c(O)c2C(=O)C2=C(O)C3(O)C(=O)C(C(N)=O)=C(O)C(N(C)C)C3C(O)C21 (centres unmarked) [Compound 1, 9-nitro-6-deoxy-5-hydroxytetracycline H2SO4]	8	8	8	8	8	6	4	4	4	marked increase in surviving number	indistinguishable body weight changes	267	> 700	258	815	43	9% and 13%	+9%	+13%	1	IC50 (Human recombinant MMP14): 86 µM; percent inhibition, C8161 (Melanoma) ([4]; 25 ug/mL): 35^B percent and 56^B percent; percent inhibition, MDA-MB-231 (Breast) ([5]; 10 ug/mL): 20^B percent and 25^B percent; percent inhibition, PC-3 ML (Prostrate) ([6]; 10 ug/mL): 47^B percent and 24^B percent; percent inhibition, RPMI-8226 (Multiple Myeloma) ([7]; 1 ug/mL): 20% and 21^B percent; percent inhibition, RPMI-8226 (Multiple Myeloma) ([7]; 25 ug/mL): 15% and 29^B percent
CC1c2ccc(N)c(O)c2C(=O)C2=C(O)C3(O)C(=O)C(C(N)=O)=C(O)C(N(C)C)C3C(O)C21 (centres unmarked) [Compound 2, 9-amino-6-deoxy-5-hydroxytetracycline H2SO4]	10	10	10	10	9	9	7	7	7	marked increase in surviving number	indistinguishable body weight changes						20^B percent	10%	7%	6	percent inhibition, ARK ([2]; 10 ug/mL): 9^B percent; percent inhibition, ARK ([2]; 25 ug/mL): 10%; percent inhibition, C8161 (Melanoma) ([4]; 1 ug/mL): 20^B percent; percent inhibition, C8161 (Melanoma) ([4]; 10 ug/mL): 25^B percent; percent inhibition, C8161 (Melanoma) ([4]; 25 ug/mL): 27^B percent; percent inhibition, MDA-MB-231 (Breast) ([5]; 1 ug/mL): 20%; percent inhibition, MDA-MB-231 (Breast) ([5]; 10 ug/mL): 15%; percent inhibition, MDA-MB-231 (Breast) ([5]; 25 ug/mL): 30^B percent; percent inhibition, PC-3 ML (Prostrate) ([6]; 1 ug/mL): 20%; percent inhibition, PC-3 ML (Prostrate) ([6]; 10 ug/mL): 8%; percent inhibition, PC-3 ML (Prostrate) ([6]; 25 ug/mL): 15%; percent inhibition, RPMI-8226 (Multiple Myeloma) ([7]; 25 ug/mL, listed as 5): 36% and 42^B percent
CN(C)c1cc([N+]#N)c(O)c2c1CC1CC3C(N(C)C)C(O)=C(C(N)=O)C(=O)C3(O)C(O)=C1C2=O (centres unmarked) [Compound 9, 7-dimethylamino-6-demethyl-6-deoxytetracycline-9-diazonium H2SO4 HCL]												372	337	154	507	28	17^B percent	+14%	+21^B percent	7	IC50 (Human recombinant MMP14): 29 µM; percent inhibition, ARK ([2]; 10 ug/mL): 24^B percent; percent inhibition, ARK ([2]; 25 ug/mL): 20^B percent; percent inhibition, RPMI-8226 (Multiple Myeloma) ([7]; 1 ug/mL): 21^B percent; percent inhibition, RPMI-8226 (Multiple Myeloma) ([7]; 10 ug/mL): 24^B percent; percent inhibition, RPMI-8226 (Multiple Myeloma) ([7]; 25 ug/mL): 28^B percent
